{"source": "patent US20240000821A1", "about": "“CHEMICAL INHIBITORS AGAINST KINASES TO BLOCK TELOMERE ELONGATION IN CANCER” (THE JOHNS HOPKINS UNIVERSITY, priority 2016, published 2024)", "key": {"SL13 cells": {"tested_on": "SL13 cells", "assay": "Inhibition of SVA mediated telomere elongation (telomere Southern blot)", "type": "cell-based, mouse", "details": "for concentration dependence of the block of telomere elongation: several concentrations, FIG. 6, FIG. 7B", "protocol": "Inhibition of SVA mediated telomere elongation. First, 2×10^5 SL13 cells were plated onto a 6-well dish in DMEM (Gibco) with 10% FBS (Sigma) and 1% Penicillin-Streptomycin-Glutamine (Gibco). SL13 cells are a mouse fibroblast line that was derived as described (Lee et al., 299(Pt 1) BIOCHEM. J. 123-28 (2015)). After 24 hours, the drug or vehicle was added at the indicated concentration for the duration of the experiment. 24 hours later, SVA virus was added at an MOI of 0.5. 2 population doublings were estimated during the initial 48 hours; therefore 400,000 transduction units of SVA were added to 800,000 cells. Media was changed at 24 hours post transduction, and cell pellets were collected at 2 and 6 days post transduction.\nTelomere Southern Blot. Telomere length was measured by telomere restriction fragment Southern blot. Genomic DNA was extracted using Puregene Core Kit A (Qiagen). 1-3 μg of gDNA was digested with MseI (NEB) and loaded onto a 0.7% TAE Agarose gel. The gel was run at 37 V for 16 hours, then denatured for 30 minutes in 0.5 M NaOH and 1.5 M NaCl, then neutralized for 30 minutes in 1.5 M NaCl and 0.5 M Tris-HCl pH 7.4. The DNA was transferred from the gel to a nylon membrane (Amersham Hybond N+) by the weighted method overnight. Next, DNA was crosslinked to the membrane with a UV Stratalinker (Stratagene). The membrane was then pre-incubated for 2 hours at 65° C. with Church's Buffer. Telomere probe and 2-log ladder (Life Technologies) was then end-labeled with Klenow fragment polymerase (NEB) 33 μM of dATP, dTTP, dGTP and 50 μCi of α-32P dCTP (3000 Ci/mmol). Unincorporated nucleotides were removed by running on a G50 column (GE Healthcare). Labeled probe was counted, denatured at 100° C., and 10^6 counts/mL telomere probe and 2×10^4 counts/mL of 2-log ladder were added. The membrane was probed overnight at 65° C. The next day, the membrane was washed twice with 2×SSC 0.1% SDS, then twice with 0.5×SSC 0.1 SDS. The membrane was exposed on a phosphorimager (GE Healthcare) and imaged on a STORM scanner (GE Healthcare)."}, "mouse fibroblasts": {"tested_on": "mouse fibroblasts", "assay": "toxicity to mouse fibroblasts", "type": "cell-based", "details": "data not shown"}, "CK1": {"tested_on": "CK1", "details": "Selleckchem, read-out: in vitro IC50; cited from earlier work"}, "[1]": {"details": "10 μM, days 2 and 6 post SVA transduction"}, "[2]": {"details": "0.5 μM, days 2 and 6 post SVA transduction, FIG. 7A"}}, "data": [{"smiles": "Cc1sc2c(c1C)C(c1ccc(Cl)cc1)=N[C@@H](CC(=O)Nc1ccc(O)cc1)c1nnc(C)n1-2", "note": "[OTX015]", "values": [{"measurement": "effect on telomere elongation by SVA", "setting": "SL13 cells; 0.4 μM, days 2 and 6 post SVA transduction, FIG. 5B", "result": "blocked SVA induced telomere elongation"}]}, {"smiles": "NC(=O)c1ccc(-c2nc(-c3ccc4c(c3)OCCO4)c(-c3ccccn3)[nH]2)cc1", "note": "[Compound D4476]", "values": [{"measurement": "effect on telomere elongation by SVA", "setting": "SL13 cells; 0.37 μM, compared to DMSO control, FIG. 7B", "result": "able to block some telomere elongation"}, {"measurement": "effect on telomere elongation by SVA", "setting": "SL13 cells; [1]", "result": "blocked telomere elongation"}, {"measurement": "effect on telomere elongation by SVA", "setting": "SL13 cells; lower concentrations (3.33 μM, 1.11 μM or 0.37 μM), FIG. 7B", "result": "less blockage of telomere elongation"}, {"measurement": "concentration dependence of the block of telomere elongation", "setting": "SL13 cells", "result": "[…]"}, {"measurement": "tolerated concentration", "setting": "mouse fibroblasts", "result": "[…]"}, {"measurement": "IC50", "setting": "CK1", "result": "[…]"}]}, {"smiles": "Nc1ncnc2c1c(I)cn2[C@@H]1O[C@H](CO)[C@@H](O)[C@H]1O", "note": "[5-Iodotubercidin]", "values": [{"measurement": "effect on telomere elongation by SVA", "setting": "SL13 cells; [2]", "result": "did not affect telomere elongation"}]}, {"smiles": "COc1cc2c(cc1-c1c(C)noc1C)ncc1[nH]c(=O)n([C@H](C)c3ccccn3)c12", "note": "[I-BET151]", "values": [{"measurement": "effect on telomere elongation by SVA", "setting": "SL13 cells; 1 μM, days 2 and 6 post SVA transduction, FIG. 5C", "result": "blocked SVA induced telomere elongation"}]}, {"smiles": "Cc1cc(/N=N/c2ccc(S(=O)(=O)Nc3ccccn3)cc2)c(N)cc1O", "note": "[MS436]", "values": [{"measurement": "effect on telomere elongation by SVA", "setting": "SL13 cells; 5 μM, days 2 and 6 post SVA transduction", "result": "blocked SVA induced telomere elongation"}]}, {"smiles": "Nc1[nH]nc2nnc(-c3c(-c4ccccc4)nn4ccccc34)cc12", "note": "[FR-180204]", "values": [{"measurement": "effect on telomere elongation by SVA", "setting": "SL13 cells; [1]", "result": "minimal effect on telomere elongation"}]}, {"smiles": "COc1cc(OC)c(C=C2C(O)=Nc3ccccc32)c(OC)c1", "note": "[IC261]", "values": [{"measurement": "effect on telomere elongation by SVA", "setting": "SL13 cells; [2]", "result": "did not affect telomere elongation"}, {"measurement": "cell death", "setting": "mouse fibroblasts; 2.5 μM", "result": "significant cell death"}, {"measurement": "IC50", "setting": "CK1", "result": 16, "unit": "µM"}]}, {"smiles": "O=c1cc(-c2cccc3c2Sc2ccccc2S3)oc(N2CCOCC2)c1", "note": "[KU-55933]", "values": [{"measurement": "effect on telomere elongation by SVA", "setting": "SL13 cells; [1]", "result": "blockage"}]}, {"smiles": "Cn1nccc1Nc1nccc(-c2ccn([C@H](CO)c3ccc(Cl)c(F)c3)c(=O)c2)n1", "note": "[GDC-0994]", "values": [{"measurement": "effect on telomere elongation by SVA", "setting": "SL13 cells; [1]", "result": "blocked telomere elongation"}]}, {"smiles": "Cc1sc2c(c1C)C(c1ccc(Cl)cc1)=N[C@@H](CC(=O)OC(C)(C)C)c1nnc(C)n1-2", "note": "[JQ1]", "values": [{"measurement": "effect on telomere elongation by SVA", "setting": "SL13 cells; 11 nM, days 2 and 6 post SVA transduction, FIG. 6", "result": "virtually no effect on telomere elongation"}, {"measurement": "effect on telomere elongation by SVA", "setting": "SL13 cells; 33 nM, days 2 and 6 post SVA transduction, FIG. 6", "result": "intermediate telomere length"}, {"measurement": "effect on telomere elongation by SVA", "setting": "SL13 cells; 0.1 μM, telomere length day 6 vs day 2 post SVA transduction, FIG. 5A", "result": "blocked telomere elongation"}, {"measurement": "effect on telomere elongation by SVA", "setting": "SL13 cells; 100 nM, days 2 and 6 post SVA transduction, FIG. 6", "result": "blocked nearly all SVA mediated elongation"}, {"measurement": "concentration dependence of the block of telomere elongation", "setting": "SL13 cells", "result": "titrates with its concentration"}]}]}
